From publication PMC10622577, “Structural basis for stabilisation of the RAD51 nucleoprotein filament by BRCA2” (Nature Communications, 2023)

How the values were obtained:
[1] = tested on: RAD51 nucleoprotein filaments; conditions: cited from earlier work
[2] = tested on: RAD51 D184A NPFs; test: EMSA of TR2 titration on RAD51 D184A NPFs; assay type: binding, human
Description: To assess RAD51 nucleoprotein (NPF) formation, wild-type and mutant RAD51 proteins were incubated with DNA in buffer: 25 mM HEPES pH 7.5, 150 mM NaCl, 2 mM DTT, 2 mM ATP, 5 mM CaCl2 for 15 minutes at room temperature. For filament binding of the TR2 peptide or His6-MBP-TR2 protein, the RAD51 NPFs were incubated with TR2 for further 5 minutes at room temperature. For filament binding of BRC4, the BRC4 peptide was pre-mixed with RAD51 for 10 minutes at room temperature before addition of DNA. For experiments with mono-streptavidin (mSA)-capped DNA, mSA (Sigma) was added in 5× molar excess of biotin labels for 15 minutes at room temperature prior to the addition of RAD51. Concentrations are provided in figures and DNA sequences for each experiment are reported in Supplementary Table 1.
Before electrophoresis, samples were mixed with a 0.5:1 volume of 50% (w/v) sucrose solution and analysed on a pre-run 0.5% (w/v) agarose gel in 0.5× TB buffer at 35 V for 2.5 hours at 4 °C. DNA was visualised by excitation of the fluorescent tag or, in the case of unlabelled DNA, by SYBR Gold staining. Gels were imaged in a Typhoon FLA9000 by excitation at 473 nm for fluorescein-labelled DNA or SYBR Gold-stained gels, 532 nm excitation for Cy3-labelled DNA or 635 nm excitation for Cy5-labelled DNA.
Supplementary table 1. DNA oligos and peptides
Oligos Size (nt) Sequence (5’ – 3’)
D184A […] (forward), […]

[3] = tested on: RAD51 D184A NPFs; test: SPR of TR2 binding to RAD51 D184A NPFs; design: species or system human; conditions: n = 3
Description: We investigated further the effect of the acidic patch mutations on TR2 binding using surface plasmon resonance (SPR). We developed an SPR assay whereby increasing amounts of TR2 peptide were added to RAD51 NPFs that had been assembled on biotinylated DNA coupled to a streptavidin chip (Supplementary Fig. 3A, Supplementary Table 1). […] We used the same SPR assay to assess the effect of the mutations on the ability of BRC4 to disrupt an established filament (Supplementary Fig. 4A, Supplementary Table 1).
All SPR experiments were performed using a Biacore T200 instrument and an S-series SA (Streptavidin) sensor chip. A single chip was used to immobilise biotinylated single- and double-stranded DNA in buffer: 25 mM HEPES pH 7.4, 100 mM NaCl, 1 mM EDTA. ssDNA and dsDNA were immobilised in different channels to a signal of 120 RU and 250 RU, respectively. […]
For the BRCA2 TR2 titration series, blank-subtracted sensorgrams were used to extract the maximum response accumulated after each TR2 injection. TR2 response accumulation was corrected to account for differences in RAD51 filament formation between runs, by multiplying the maximum response by a scale factor calculated as the ratio between mean RAD51 filament accumulation on each DNA substrate and the mean RAD51 accumulated for each mutant for each triplicate. […]

DDQKNCKKRRALDFLSRLPLPPPVSPICTFVSPAAQKAFQPPRSCGTKY [TR2, BRCA2 TR2 peptide spanning amino acids 3260 to 3308]
effect of TR2 binding on RAD51 NPFs [1]: stabilisation of RAD51 NPFs and formation of filament aggregates
protection of RAD51 NPFs from disassembly by BRC repeat 4 [1]: protection of RAD51 nucleoprotein filaments from disassembly by BRC repeat 4 of BRCA2
reduction in TR2 binding, ssDNA versus dsDNA filaments ([2]; EMSA, ssDNA compared with dsDNA): especially pronounced for filaments formed on ssDNA
TR2 binding relative to wild-type ([2]; ss- and dsDNA, 25 mM HEPES pH 7.5, 150 mM NaCl, 2 mM ATP, 5 mM CaCl2, TR2 5 min, room temperature, ssDNA performed twice, dsDNA once): reduction in TR2 binding proportional to the decrease in charge at RAD51’s acidic patch
TR2 binding by SPR relative to wild-type ([3]; Biacore T200, streptavidin chip, biotinylated ss- or dsDNA, CMA buffer pH 7.4, 1 μM RAD51, TR2 0.1-15 μM, 120 s): clear reduction in TR2 binding
impact of mutation on TR2 binding by SPR, ssDNA versus dsDNA ([3]; ssDNA compared with dsDNA): stronger for NPFs formed on ssDNA
